Literature values in patent US8846083B2, “Method for the diffusion of molecules which are insoluble in an aqueous medium and composition using said method” (priority 2004, dated 2014).

Experiments:
[1] = administered via the digestive tract
[2] = administered via the digestive tract; remark: listed apart in the source

Row | time at which the maximum concentration of the active ingredient in the blood is reached [2] | SMILES | duration of pharmacological effects [1]
1 | 90 min | CC(C)Cc1ccc(C(C)C(=O)O)cc1 (stereo not shown) [ibuprofen] | approximately 2 hour
2 | 75 min | CC(C(=O)O)c1cccc(C(=O)c2ccccc2)c1 (stereo not shown) [ketoprofen] | 1.5 hour
